This passage reports IC50 results from patent publication US5169963A, “Di-(5-hydroxy-2(5H)2-oxo-4-furyl)alkylmethyl-alpha,omega alkanedioates and N,N-bis-(5-hydroxy-2(5H)2-oxo-4-furyl)alkylmethyl-alpha,omega-dialkanoic acid amides as anti-inflammatory agents” (Allergan, Inc., priority 1991, dated 1992).

Assay [1] addresses phosphoinositide-specific phospholipase C. The assay is described as follows: Inhibition of Phosphoinositide-specific Phospholipase C. Type of assay: biochemical. Particulars: procedure of Bennett et al, Molecular Pharmacology 32:587-593 (1987); read-out: PLC IC50. An excerpt:
Inhibition of Phosphoinositide-specific Phospholipase C
The effect of compounds of this invention on phosphoinositide-specific phospholipase C may be determined by procedures described by Bennett et al, Molecular Pharmacology 32:587-593 (1987).

The target in assay [2] is bee venom phospholipase A2 (Apis mellifera, UniProt P00630). The assay is described as follows: biochemical. Particulars: read-out: PLA2 IC50.
Sequence of bee venom phospholipase A2 (P00630 34-167 limits assumed): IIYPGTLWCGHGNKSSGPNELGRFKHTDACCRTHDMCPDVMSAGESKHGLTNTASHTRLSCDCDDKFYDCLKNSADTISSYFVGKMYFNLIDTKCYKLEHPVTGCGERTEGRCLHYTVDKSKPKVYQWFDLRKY

Usually IC50 stands for the point on the concentration scale where inhibition reaches its midpoint. In the case of `CCCCCCCCCCCCC(OC(=O)CC(=O)OC(CCCCCCCCCCCC)C1=CC(=O)OC1O)C1=CC(=O)OC1O` (centres unmarked) [Compound 1, Bis[1-(5-hydroxy-2(5H)-furano-4-yl)tridecyl]malonate], the IC50 in assay [1] is 2000 nM; in assay [2], 20 nM.

On to `CCCCCCCCCCCCC(OC(=O)CCCC(=O)OC(CCCCCCCCCCCC)C1=CC(=O)OC1O)C1=CC(=O)OC1O` (centres unmarked) [Compound 2], for which the IC50 in assay [2] is 30 nM.

On to `CCCCCCC(OC(=O)CC(=O)OC(CCCCCC)C1=CC(=O)OC1O)C1=CC(=O)OC1O` (centres unmarked) [Compound 4, Di[(1-5-hydroxy-2(5H)2-oxo-4-furyl)heptyl]malonate], for which, in assay [2], the IC50 is 30 nM.

As to `CC(=CCCC1=CCC(C2=CC(=O)OC2O)OC1O)CCC1=C(C)CCCC1(C)C` (centres unmarked) [manoalide, Manoalide, reference compound], the IC50 in assay [1] was determined as 3000 nM.
